# Measurements published in patent publication EP1363899B1, “QUINAZOLONE DERIVATIVES AS ALPHA 1A/B ADRENERGIC RECEPTOR ANTAGONISTS” (F.HOFFMANN-LA ROCHE AG, priority 2001, dated 2002).
# Columns and labels:
# alpha-1B adrenoceptor = molecular target: T1, alpha-1B adrenoceptor (Homo sapiens, UniProt P35368); test: [3H]prazosin binding (alpha1-adrenoceptor) assay, alpha-1B; conditions: membranes of transfected CHO-KI cells, read-out: affinity towards the alpha-1B adrenoceptor (pKi) (converted)
# T1 construct: expressed in transfected cells; host or cells: CHO-K1
# T1 sequence (P35368 1-520): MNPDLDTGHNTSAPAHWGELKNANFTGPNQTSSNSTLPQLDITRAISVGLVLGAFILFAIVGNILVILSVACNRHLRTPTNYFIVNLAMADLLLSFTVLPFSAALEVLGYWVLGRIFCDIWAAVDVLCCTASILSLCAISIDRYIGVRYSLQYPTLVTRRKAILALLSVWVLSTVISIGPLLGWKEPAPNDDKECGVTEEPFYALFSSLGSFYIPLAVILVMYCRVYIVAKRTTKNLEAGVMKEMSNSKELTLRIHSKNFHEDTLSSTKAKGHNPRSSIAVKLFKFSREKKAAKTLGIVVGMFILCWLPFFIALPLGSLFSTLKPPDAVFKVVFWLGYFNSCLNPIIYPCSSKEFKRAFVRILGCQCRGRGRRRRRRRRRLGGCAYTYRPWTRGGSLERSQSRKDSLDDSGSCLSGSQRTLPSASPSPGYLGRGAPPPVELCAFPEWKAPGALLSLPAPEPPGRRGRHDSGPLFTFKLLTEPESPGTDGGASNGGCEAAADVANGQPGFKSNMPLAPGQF
# Method: (§1) Alpha1A, alpha1B, and alpha1D adrenoceptor transfected CHO-KI cells, prepared using the methods described by Chang et al., FEBS Lett. 1998, 422:279-283, were grown to confluence in T-162 tissue culture flasks in Ham's F-12 culture medium supplemented with 10% fetal bovine serum, geneticin (150 µg/mL) and streptomycin/penicillin (30 µg/mL/30 µg/mL) at 37 °C in 7% CO2. Cells were harvested by incubating with phosphate-buffered saline (PBS) containing 30 µM EDTA for 5-10 min at 37 °C. Cells were pelleted by centrifuging at 500 x g for 5 min, and the pelleted cells were homogenized (Polytron homogenizer) in 10 vols (w/v) of 50 mM Tris, 1 mM EDTA, (homogenisation buffer, pH 7.4 at 4 °C). The homogenate was centrifuged at 45,000 x g for 20 min. The pellet was resuspended in the homogenizing buffer and rehomogenized. The resulting homogenate was centrifuged at 45,000 x g for 20 min. The pellet was resuspended in 50 mM Tris buffer (pH 7.4 at 4 °C), aliquoted, frozen, and stored at -80 °C for further use.
# (§2) The membranes were thawed at room temperature and diluted in assay buffer (50 mM Tris buffer at […]) at 37 °C and homogenized using the Polytron tissue disrupter. The membranes were incubated with the radioligand ([^3H]prazosin, NEN, 0.1 - 0.5 nM) and test compound at 37 °C for 30 min. The membranes were then filtered over polyethyleneimine-treated GF/B unifilter plates using a Packard Filtermate Harvester and washed with ice-cold 50 mM Tris-HCl, 1 mM EDTA buffer (3 x 3 sec. washes). Scintillation cocktail was added to the filter plates and bound radioligand determined by liquid scintillation spectrophotometry.
# (§3) For each experiment, total binding (in the absence of any test or reference compounds) and non-specific binding (10 µM phentolamine) were determined. For each sample tested, the concentration producing 50% inhibition of binding (IC50) and Hill Slope (nH) was determined using iterative non-linear curve fitting techniques with Kaleidagraph (Synergy Software) or other appropriate software. If the radioligand KD was known, the inhibition dissociation constant (K1) of each ligand was determined according to the method of Cheng and Prusoff (Cheng, Y-C. and Prusoff, W.H., Biochem. Pharmacol., 1973, 22, 3099-3108).
# alpha-1D adrenoceptor = molecular target: T2, alpha-1D adrenoceptor (Homo sapiens, UniProt P25100); test: [3H]prazosin binding (alpha1-adrenoceptor) assay, alpha-1D; conditions: membranes of transfected CHO-KI cells, read-out: affinity towards the alpha-1D adrenoceptor (pKi) (converted)
# T2 construct: expressed in transfected cells; host or cells: CHO-K1
# T2 sequence (P25100 1-572): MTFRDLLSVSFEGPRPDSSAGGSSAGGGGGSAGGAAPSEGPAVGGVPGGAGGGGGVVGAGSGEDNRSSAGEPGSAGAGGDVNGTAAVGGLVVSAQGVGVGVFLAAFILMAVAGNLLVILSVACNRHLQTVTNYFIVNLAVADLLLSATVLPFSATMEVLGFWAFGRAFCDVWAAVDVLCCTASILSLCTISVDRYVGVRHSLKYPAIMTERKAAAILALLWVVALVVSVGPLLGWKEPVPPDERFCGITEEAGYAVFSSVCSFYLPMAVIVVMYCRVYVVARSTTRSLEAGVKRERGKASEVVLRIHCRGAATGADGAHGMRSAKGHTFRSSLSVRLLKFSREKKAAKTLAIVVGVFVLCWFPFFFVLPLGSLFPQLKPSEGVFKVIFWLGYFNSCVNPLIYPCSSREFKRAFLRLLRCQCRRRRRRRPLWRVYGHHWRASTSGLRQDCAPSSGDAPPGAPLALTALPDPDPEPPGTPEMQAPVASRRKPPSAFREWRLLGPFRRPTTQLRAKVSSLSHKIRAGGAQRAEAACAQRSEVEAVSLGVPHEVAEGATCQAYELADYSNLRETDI
# Method: as §1, §2, §3
# alpha-1A adrenoceptor = molecular target: T3, alpha-1A adrenoceptor (Homo sapiens, UniProt P35348); test: [3H]prazosin binding (alpha1-adrenoceptor) assay, alpha-1A; conditions: membranes of transfected CHO-KI cells, read-out: affinity towards the alpha-1A adrenoceptor (pKi) (converted)
# T3 construct: expressed in transfected cells; host or cells: CHO-K1
# T3 sequence (P35348 1-466): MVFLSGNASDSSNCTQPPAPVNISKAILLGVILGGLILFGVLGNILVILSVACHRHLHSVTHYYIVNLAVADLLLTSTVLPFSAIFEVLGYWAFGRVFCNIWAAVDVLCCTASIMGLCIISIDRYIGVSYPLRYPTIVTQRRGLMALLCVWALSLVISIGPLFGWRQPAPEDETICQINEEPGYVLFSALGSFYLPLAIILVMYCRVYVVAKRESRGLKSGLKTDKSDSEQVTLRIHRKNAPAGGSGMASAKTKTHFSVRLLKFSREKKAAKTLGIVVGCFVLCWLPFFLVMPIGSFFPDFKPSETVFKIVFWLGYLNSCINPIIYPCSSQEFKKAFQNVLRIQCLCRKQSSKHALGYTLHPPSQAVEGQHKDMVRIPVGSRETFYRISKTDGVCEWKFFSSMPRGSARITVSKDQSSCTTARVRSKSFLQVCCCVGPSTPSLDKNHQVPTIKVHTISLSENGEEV
# Method: as §1, §2, §3
Ki (alpha-1B adrenoceptor),Ki (alpha-1D adrenoceptor),Ki (alpha-1A adrenoceptor),Compound
52.5 nM,1170 nM,15.1 nM,"COc1cc2nc(N3CCc4c(cccc4S(=O)(=O)N4CCN(C)CC4)C3)[nH]c(=O)c2cc1OC [Compound 401, 6,7-dimethoxy-2-[5-(4-methyl-piperazine-1-sulfonyl)-3,4-dihydro-1H-isoquinolin-2-yl]-3H-quinazolin-4-one]"
4.27 nM,37.2 nM,0.832 nM,"COc1cc2nc(N3CCc4c(ncn4-c4ccccc4)C3)[nH]c(=O)c2cc1OC [Compound 602, 6,7-dimethoxy-2-(1-phenyl-1,4,6,7-tetrahydro-imidazo[4,5-c]pyridin-5-yl)-3H-quinazolin-4-one]"
63.1 nM,275 nM,8.13 nM,"COc1cc2nc(N3CCc4ccc(S(=O)(=O)N5CCOCC5)cc4C3)[nH]c(=O)c2cc1OC [Compound 404, 6,7-dimethoxy-2-[7-(morpholine-4-sulfonyl)-3,4-dihydro-1H-isoquinolin-2-yl]-3H-quinazolin-4-one]"
6.61 nM,398 nM,9.55 nM,"COc1cc2nc(N3CCc4c(cccc4NC4=NCCC4)C3)[nH]c(=O)c2cc1OC [Compound 810, 2-[5-(4,5-dihydro-3H-pyrrol-2-ylamino)-3,4-dihydro-1H-isoquinolin-2-yl]-6,7-dimethoxy-3H-quinazolin-4-one]"
5.89 nM,83.2 nM,2.75 nM,"COc1ccc(-n2cnc3c2CCN(c2nc4cc(OC)c(OC)cc4c(=O)[nH]2)C3)cc1 [Compound 608, 6,7-dimethoxy-2-[1-(4-methoxy-phenyl)-1,4,6,7-tetrahydro-imidazo[4,5-c]pyridin-5-yl]-3H-quinazolin-4-one]"
7.59 nM,81.3 nM,3.72 nM,"COc1cc2[nH]c(N3CCc4c(ncn4C4CCCCC4)C3)nc(=O)c2cc1OC [Compound 619, 2-(1-cyclohexyl-1,4,6,7-tetrahydro-imidazo[4,5-c]pyridin-5-yl)-6,7-dimethoxy-1H-quinazolin-4-one]"
12.3 nM,178 nM,2.69 nM,"COc1cc2nc(N3CCc4c(ncn4-c4ccc5c(c4)OCO5)C3)[nH]c(=O)c2cc1OC [Compound 612, 2-(1-benzo[1,3]dioxol-5-yl-1,4,6,7-tetrahydro-imidazo[4,5-c]pyridin-5-yl)-6,7-dimethoxy-3H-quinazolin-4-one]"

# The next lines start with the compound.
Compound,Ki (alpha-1B adrenoceptor),Ki (alpha-1D adrenoceptor),Ki (alpha-1A adrenoceptor)
"COc1cc2nc(N3CCc4c(cccc4N=CN(C)C)C3)[nH]c(=O)c2cc1OC [Compound 801, N-[2-(6,7-dimethoxy-4-oxo-3,4-dihydro-quinazolin-2-yl)-1,2,3,4-tetrahydro-isoquinolin-5-yl]-N,N-dimethyl-formamidine]",4.47 nM,372 nM,2.75 nM
"COc1cc2nc(N3CCc4nc5ccncc5cc4C3)[nH]c(=O)c2cc1OC [Compound 146, 2-(3,4-dihydro-1H-2,7,10-triaza-anthracen-2-yl)-6,7-dimethoxy-3H-quinazolin-4-one]",5.25 nM,91.2 nM,3.47 nM
COCCN(C)c1ncnc2c1CCN(c1nc3cc(OC)c(OC)cc3c(=O)[nH]1)C2 [Compound 205],5.01 nM,407 nM,6.17 nM
"COc1ccc(-c2cccc3c2CCN(c2nc4cc(OC)c(OC)cc4c(=O)[nH]2)C3)cc1 [Compound 106, 6,7-dimethoxy-2-[5-(4-methoxy-phenyl)-3,4-dihydro-1H-isoquinolin-2-yl]-3H-quinazolin-4-one]",0.741 nM,10000 nM,3.8 nM
"COc1cc2c(cc1OC)CN(c1nc(=O)c3cc(OC)c(OC)cc3[nH]1)CC2 [Compound 105, 2-(6,7-dimethoxy-3,4-dihydro-1H-isoquinolin-2-yl)-6,7-dimethoxy-1H-quinazolin-4-one]",0.759 nM,47.9 nM,0.955 nM
"CCCCc1ncc2n1CCN(c1nc(=O)c3cc(OC)c(OC)cc3[nH]1)C2 [Compound 306, 2-(3-butyl-5,6-dihydro-8H-imidazo[1,5-α]pyrazin-7-yl)-6,7-dimethoxy-1H-quinazolin-4-one]",3.09 nM,19.5 nM,1.12 nM
"COc1cc2[nH]c(N3CCn4c(cnc4N4CCOCC4)C3)nc(=O)c2cc1OC [Compound 307, 6,7-dimethoxy-2-(3-morpholin-4-yl-5,6-dihydro-8H-imidazo[1,5-α]pyrazin-7-yl)-1H-quinazolin-4-one]",17.4 nM,123 nM,7.76 nM
"COc1cc2c(cc1OC)S(=O)(=O)NC(N1CCc3c(ncnc3N3CCOCC3)C1)=N2 [Compound 102, 6,7-dimethoxy-3-(4-morpholin-4-yl-5,8-dihydro-6H-pyrido[3,4d]pyrimidin-7-yl)-2H-benzo[1,2,4]thiadiazine-1,1-dioxide]",31.6 nM,339 nM,15.8 nM
"COc1cc2[nH]c(N3CCn4c(cnc4-c4ccccc4)C3)nc(=O)c2cc1OC [Compound 302, 6,7-dimethoxy-2-(3-phenyl-5,6-dihydro-8H-imidazo[1,5-a]pyrazin-7-yl)-1H-quinazolin-4-one]",0.832 nM,6.17 nM,0.912 nM
"COc1cc2nc(N3CCc4c(ncnc4Nc4cccc(C)n4)C3)[nH]c(=O)c2cc1OC [Compound 208, 6,7-dimethoxy-2-[4-(6-methyl-pyridin-2-ylamino)-5,8-dihydro-6H-pyrido[3,4-d]pyrimidin-7-yl]-3H-quinazolin-4-one]",13.2 nM,182 nM,3.8 nM
"COc1cc2nc(N3CCc4c(cccc4-c4cccnc4)C3)[nH]c(=O)c2cc1OC [Compound 112, 6,7-dimethoxy-2-(5-pyridin-3-yl-3,4-dihydro-1H-isoquinolin-2-yl)-3H-quinazolin-4-one]",2.04 nM,132 nM,1.17 nM
